Among the data in patent US11426347B2, “Food for improving intraintestinal environment” (AJINOMOTO CO., INC., priority 2017, dated 2022) are proliferation of bifidobacteria values, retold here.

Holding throughout (assay type): cell-based
The subject of experiment [1] is bifidobacteria. The experiment in a line: Experimental Example 1-1: addition of amino acid and fructo-oligosaccharide to human feces suspension, anaerobic culture, quantitative PCR of bifidobacteria. Conditions: amino acid added together with 0.5% FOS, compared with FOS alone, human feces suspension in PBS, 37° C., 4 days. As to the method: The PBS solutions for the Examples and Comparative Examples shown in Table 1-1 were prepared and used as media for a feces culture. PBS alone was used as a control. Fructo-oligosaccharide (FOS) manufactured by Wako Pure Chemical Industries, Ltd. (#064-02385) was used.
(§1) Thereafter, 10 ml of each solution was dispensed into glass vials and the glass vials were sterilized by autoclave, made anaerobic, and sealed with a butyl rubber stopper. The feces suspension was prepared by collecting about 10 g of feces from 3 healthy individuals (one man and two women) in their 20 s to 40 s and suspending same in 80 ml of anaerobic PBS. The feces suspension was added to each vial by 0.5 ml, placed in an incubator at 37° C., and anaerobically cultured for 4 days with tumble blending once per day. After completion of the culture, an intestinal bacterial pellet was obtained from the entire amount of the culture medium by centrifugation (8,000×g, 5 min). DNA was extracted from this pellet using ISOFECAL for BeadsBeat (manufactured by NIPPON GENE CO., LTD.), and quantitative PCR was performed using GeneAce SYBR qPCR Mix α (manufactured by NIPPON GENE CO., LTD.). Quantitative PCR was performed under the conditions of 45 cycles of 95° C. for 30 sec and 60° C. for 60 sec after 95° C. for 10 min. Primers for quantitative PCR used for detection bifidobacteria are as follows.
(§2) Using the results obtained by quantitative PCR, the relative amount when the control is 1 was calculated, and the results were normalized with z-score.

The test system of experiment [2] is bifidobacteria. The experiment in a line: Experimental Example 2: addition test of amino acid and galacto-oligosaccharide to human feces suspension. Conditions: amino acid added together with 0.5% GOS, compared with GOS alone; human feces suspension in PBS, 4 days; quantitative PCR. How it is done:
as §1
The PBS solutions for the Examples and Comparative Examples shown in Table 2 were prepared and used as media for feces culture. […]
as §2

Experiment [3] relates to bifidobacteria. The experiment in a line: Experimental Example 1-2: addition test of amino acid and fructo-oligosaccharide to human feces suspension. Conditions: amino acid added together with 0.5% FOS, compared with FOS alone; human feces suspension in PBS, 4 days; quantitative PCR. How it is done: as §1
The PBS solutions for the Examples and Comparative Examples shown in Table 1-2 were prepared and used as media for a feces culture. […]
as §2

In the case of `NCCCC[C@H](N)C(=O)O` [Lys, L-lysine], the proliferation of bifidobacteria result is on record as “greater proliferation of bifidobacteria than that with FOS alone” in experiment [1] and “greater proliferation of bifidobacteria than that with GOS alone” in experiment [2].

In the case of `C[C@H](N)C(=O)O` [Ala, L-alanine], in experiment [1], the proliferation of bifidobacteria entry was “greater proliferation of bifidobacteria than that with FOS alone”.

Take `N[C@@H](Cc1c[nH]cn1)C(=O)O` [His, L-histidine]: in experiment [3], the proliferation of bifidobacteria result was “greater proliferation of bifidobacteria than that with FOS alone”.

With `CC[C@H](C)[C@H](N)C(=O)O` [Ile, L-isoleucine], the proliferation of bifidobacteria result in experiment [1] is “greater proliferation of bifidobacteria than that with FOS alone”.

`CC(C)[C@H](N)C(=O)O` [Val, L-valine]: the proliferation of bifidobacteria entry in experiment [1] is listed as “greater proliferation of bifidobacteria than that with FOS alone”.

Turning to `O=C(O)[C@@H]1CCCN1` [Pro, L-proline], the proliferation of bifidobacteria result in experiment [3] was “greater proliferation of bifidobacteria than that with FOS alone”.

Consider `NC(=O)CC[C@H](N)C(=O)O` [Gln, L-glutamine], for which, in experiment [1], the proliferation of bifidobacteria entry is “greater proliferation of bifidobacteria than that with FOS alone”.

On to `N[C@@H](CCC(=O)O)C(=O)O` [Glu, L-glutamic acid], for which the proliferation of bifidobacteria result in experiment [1] was “greater proliferation of bifidobacteria than that with FOS alone”; in experiment [2], “greater proliferation of bifidobacteria than that with GOS alone”.
